According to US20250120967A1, “TYROSINE KINASES INHIBITORS AND USES THEREOF” (GREAT NOVEL THERAPEUTICS BIOTECH & MEDICALS CORPORATION, priority 2023, published 2025):

How the values were obtained:
A549 cells = test: In vitro cytotoxicity assay (MTT, 72 h); type: cell-based; settings: Homo sapiens, growth inhibition
Method: (§1) Six different cell lines were used, including human breast cancer cell lines MDA-MB-231 (6×10^3) and MDA-MB-453 (2.4×10^4), human colorectal cell line SW48 (2.4×10^4), human breast epithelial cell line M10 (6×10^3), human cancer cell line A549 (1.4×10^3), and murine colorectal carcinoma tumors CT26 (6×10^3), which were seeded in a 96-well plate. […] After 72 h, MTT assay (Cayman™) was used to determine the cellular viability.

MDA-MB-453 cells = test: In vitro cytotoxicity assay (MTT, 72 h); type: cell-based; settings: Homo sapiens, growth inhibition
Method: as §1

MDA-MB-231 cells = test: In vitro cytotoxicity assay (MTT, 72 h); type: cell-based; settings: Homo sapiens, growth inhibition
Method: as §1

SW48 cells = test: In vitro cytotoxicity assay (MTT, 72 h); type: cell-based; settings: Homo sapiens, growth inhibition
Method: as §1

M10 cells = test: In vitro cytotoxicity assay (MTT, 72 h); type: cell-based; settings: growth inhibition, human normal cell line
Method: as §1

CT-26 cells = test: In vitro cytotoxicity assay (MTT, 72 h); type: cell-based, murine; settings: Mus musculus, CT26, growth inhibition
Method: as §1

CT26 tumor = test: Experimental tumor model and therapies, CT26 tumor-bearing mice;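 also: male Balb/c mice bearing CT26 grafts in the back, treated once tumors reached roughly 250–300 mm^3, tumor volume measured twice weekly, response graded by fold growth after treatment end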
Method: LLC1 was grown at 37° C. under humidified air supplemented with CO2 in DMEM (#10-013-CM, Corning®) containing 10% heat inactivated fetal calf serum, and 1× concentration of MycoZap Antibiotics. CT26 was grown at 37° C. under humidified air supplemented with CO2 in RPMI1640 (cat. #10-040-CM, Corning®) containing 10% heat inactivated fetal calf serum, and 1× concentration of MycoZap Antibiotics. After the cancer cell culture was completed, it was implanted (1×10^6 cells/mouse) into the back of the mouse for growth.
Six- to eight-week-old male Balb/c mice (National Laboratory Animal Center, Taiwan) were used for all animal experiments. […] Tumors were allowed to grow for 10-12 days (tumor size about 250-300 mm^3) before randomization and treatment. The tumor volume of the mice was measured once every three or four days (twice/week). Animals were euthanized when tumors reached more than 3000 mm^3 in diameter. […] Relapse/recurrence was defined as when tumor growth reappeared and tumor size reached at least 5 fold in mice with CR or PR response after secondary tumor assessment. In this study, we defined Complete Response (CR, <0.5 time tumor growth in the tumor bearing mice at tumor assessment after the end of treatment); Partial Response (PR, tumor size ≥0.5 time tumor growth, but <1 time tumor growth in the tumor bearing mice at tumor assessment after the end of treatment); Stable Disease (SD, ≥1 time tumor growth, but <5 times tumor growth in the tumor bearing mice at tumor assessment after the end of treatment); and Progressive Disease (PD, ≥5 times tumor growth in the tumor bearing mice at tumor assessment after the end of treatment) for the evaluation of treatment efficacy.

[1] = FIG. 3E, oral 12 days, Cabozantinib 30 mg/kg, Cbo-20 30 mg/kg, GNTbm-38-K30 40 mg/kg
[2] = FIG. 7E, Cbo-23-K30 30 mg/kg, Zanzalintinib hemifumarate 30 mg/kg, GNTbm-38-2HCL 40 mg/kg
[3] = FIG. 5E, Cbo-23 30 mg/kg, Regorafenib 30 mg/kg, GNTbm-38-K30 20 mg/kg in combination, 5 mg/kg alone

Row | Compound | IC50 (A549 cells) [µM] | IC50 (MDA-MB-453 cells) [µM] | IC50 (MDA-MB-231 cells) [µM] | IC50 (SW48 cells) [µM] | IC50 (M10 cells) [µM] | IC50 (CT-26 cells) [µM] | further results
1 | COc1cc2nccc(Oc3ccc(C(=O)NC4(C(=O)Nc5ccc(F)cc5)CC4)cc3F)c2cc1OC [Cbo-03, 4-((6,7-diMethoxyquinolin-4-yl)oxy)-3-fluoro-N-(1-((4-fluorophenyl)carbamoyl)cyclopropyl)benzamide] | 12.8 ± 6.7 | 17.9 ± 1.34 | 12.7 ± 1.37 | > 25 | 16.2 ± 1.44 |  | 
2 | COc1cc2nccc(Oc3ccc(NC(=O)C4(NC(=O)c5ccc(F)cc5)CC4)cc3F)c2cc1Oc1ccc(N)cc1 [Cbo-05] | 2.51 ± 0.21 | 8.92 ± 1.49 | 7.84 ± 1.34 | 1.86 ± 0.059 | 1.17 ± 0.053 | 8.9 ± 0.61 | 
3 | COc1cc2nccc(Oc3ccc(NC(=O)C4(NC(=O)c5ccc(F)cc5)CC4)cc3F)c2cc1Oc1ccc(N)cn1 [Cbo-06] | 6.89 ± 1.61 | > 25 | > 25 | 8.76 ± 0.52 | 5.59 ± 0.46 |  | 
4 | COc1cc2nccc(Oc3ccc(NC(=O)C4(NC(=O)c5ccc(F)cc5)CC4)cc3F)c2cc1O [Cbo-07, 4-Fluoro-N-(1-((3-fluoro-4-((6-hydroxy-7-methoxyquinolin-4-yl)oxy)phenyl)carbamoyl)cyclopropyl)benzamide] | 1.49 ± 0.21 | > 25 | 5.07 ± 1.04 | 0.74 ± 0.13 | 4.44 ± 1.51 |  | 
5 | COc1cc2nccc(Oc3ccc(NC(=O)C4(NC(=O)c5ccc(F)cc5)CC4)cc3F)c2cc1Oc1cccc(N)c1 [Cbo-08] | 2.6 ± 1.82 | > 25 | > 25 | 3.51 ± 0.48 | 1.83 ± 0.72 |  | 
6 | COc1cc2nccc(Oc3ccc(NC(=O)C4(NC(=O)c5ccc(F)cc5)CC4)cc3F)c2cc1Oc1ccc(N)cc1C [Cbo-09] | 6.89 ± 1.61 | 9.28 ± 0.66 | 12.6 ± 0.98 | 1.02 ± 0.008 | 0.99 ± 0.044 |  | 
7 | COc1cc2nccc(Oc3ccc(N(C(=O)C4(C(N)=O)CC4)c4ccc(F)cc4)cc3F)c2cc1OC [Cbo-20, N-(4-((6,7-dimethoxyquinolin-4-yl)oxy)-3-fluorophenyl)-N-(4-fluorophenyl)cyclo-propane-1,1-dicarboxamide] | 3.34 ± 0.69 | 14.1 ± 2.06 | 4.81 ± 1.16 | 2.51 ± 0.18 | 5.47 ± 1.73 | 8.89 ± 0.24 | CR (number of mice) (CT26 tumor; [1]): 2; ORR (CT26 tumor; [1]): 50%; PD (number of mice) (CT26 tumor; [1]): 2; PR (number of mice) (CT26 tumor; [1]): 2; Survival Rate (CT26 tumor; FIG. 3F, Cabozantinib 30 mg/kg, Cbo-20 30 mg/kg, GNTbm-38-K30 40 mg/kg): 25%; recurrence rate (CT26 tumor; FIG. 3G, day 60, Cabozantinib 30 mg/kg, Cbo-20 30 mg/kg, GNTbm-38-K30 40 mg/kg): 75%
8 | CC(CN)NC(=O)c1cc(Oc2ccc(N(C(=O)C3(C(N)=O)CC3)c3ccc(F)cc3)cc2F)ccn1 (centres unmarked) [Cbo-22, N-(4-((2-((1-aminopropan-2-yl)carbamoyl)pyridin-4-yl)oxy)-3-fluorophenyl)-N-(4-fluorophenyl)cyclopropane-1,1-dicarboxamide] | 11.2 ± 1.18 | > 25 | 16.1 ± 0.19 | 21.9 ± 0.96 | 15.1 ± 0.44 | > 25 | ORR (CT26 tumor; FIG. 4D, Cabozantinib 30 mg/kg, Cbo-22 30 mg/kg, GNTbm-38-K30 40 mg/kg): 0%; Survival Rate (CT26 tumor; FIG. 4E, Cabozantinib 30 mg/kg, Cbo-22 30 mg/kg, GNTbm-38-K30 40 mg/kg): 0%
9 | COc1cc2nccc(Oc3ccc(NC(=O)C4(C(=O)Nc5ccc(F)cc5)CC4)cc3F)c2cc1C(=O)NC(C)CN (centres unmarked) [Cbo-24, O-phenyl-N-(4-fluorophenyl)cyclopropane-1,1-dicarboxamide] | 16.2 ± 0.95 | 17 ± 0.96 | 15.7 ± 0.33 | 8.75 ± 0.55 | > 25 | > 25 | 
10 | Nc1ccccc1NC(=O)c1ccc(NC(=O)C/C=C/c2cccnc2)cc1 [GNTbm-38-2HCL, (E)-N-(2-aminophenyl)-4-(4-(pyridin-3-yl)but-3-enamido)benzamide] |  |  |  |  |  |  | CR (number of mice) (CT26 tumor; [2]): 0; ORR (CT26 tumor; [2]): 0%; PD (number of mice) (CT26 tumor; [2]): 9; PR (number of mice) (CT26 tumor; [2]): 0
11 | CNC(=O)c1cc(Oc2ccc(NC(=O)Nc3ccc(Cl)c(C(F)(F)F)c3)c(F)c2)ccn1 [Regorafenib] |  |  |  |  |  |  | CR (number of mice) (CT26 tumor; [3]): 0; ORR (CT26 tumor; [3]): 0%; PD (number of mice) (CT26 tumor; [3]): 7; PR (number of mice) (CT26 tumor; [3]): 0; Survival Rate (CT26 tumor; FIG. 5F, Cbo-23 30 mg/kg, Regorafenib 30 mg/kg, GNTbm-38-K30 20 mg/kg in combination, 5 mg/kg alone): 0%
12 | Zanzalintinib hemifumarate |  |  |  |  |  |  | CR (number of mice) (CT26 tumor; [2]): 0; ORR (CT26 tumor; [2]): 0%; PD (number of mice) (CT26 tumor; [2]): 9; PR (number of mice) (CT26 tumor; [2]): 0; tumor inhibition rate at day 28 (CT26 tumor; FIGS. 7B, 7C, Cbo-23-K30 30 mg/kg, Zanzalintinib hemifumarate 30 mg/kg, GNTbm-38-2HCL 40 mg/kg): 2%
